Among the data in patent US11254663B2 (BRISTOL-MYERS SQUIBB COMPANY, priority 2019, dated 2022) are EC50 values, retold here.

The target in the experiment is FXR (Homo sapiens (Human), UniProt Q96RI1). In words: transient human FXR/Gal4-luciferase reporter assay. The class given is cell-based. The essentials: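 HEK293 cells stably carrying a 5×Gal4 response element–firefly luciferase reporter were transiently transfected overnight with a Gal4 DBD–human FXR LBD fusion plasmid. Compound was added in DMSO and cells were incubated overnight at 37 °C, 5% CO2. Activity was read as Steady-Glo luminescence.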
Chain of FXR (Q96RI1 262-486): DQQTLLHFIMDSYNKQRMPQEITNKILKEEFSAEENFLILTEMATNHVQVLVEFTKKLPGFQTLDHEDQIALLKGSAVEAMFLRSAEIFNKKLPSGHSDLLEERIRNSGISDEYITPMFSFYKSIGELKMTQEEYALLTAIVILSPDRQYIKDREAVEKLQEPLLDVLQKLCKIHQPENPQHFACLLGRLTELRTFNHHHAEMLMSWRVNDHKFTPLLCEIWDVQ
In general terms: Reporter assays use an easily measured gene product as a stand-in for the process of interest.

[1] abbreviates: Gal4-hFXR fusion construct, HEK293 reporter cells, response relative to 8 μM GW-4064.

Like-named read-outs stand apart in the source and are kept apart here.

Regarding `O=C(N(CC12CCC(c3ccc(C(F)(F)F)cn3)(CC1)CC2)c1cccc(-c2cnc(C3CC3)nc2)c1)C12CC(F)(C1)C2` [Example 490, N-(3-(2-cyclopropylpyrimidin-5-yl)phenyl)-3-fluoro-N-((4-(5-(trifluoromethyl)pyridin-2-yl)bicyclo[2.2.2]octan-1-yl)methyl)bicyclo[1.1.1]pentane-1-carboxamide], the EC50 is 0.334 µM. Consider `COc1cnc(-c2cccc(N(CC34CCC(c5nc(C(C)(C)C)no5)(CC3)CC4)C(=O)C34CC(F)(C3)C4)c2)nc1` [Example 369, N-((4-(3-(tert-butyl)-1,2,4-oxadiazol-5-yl)bicyclo[2.2.2]octan-1-yl)methyl)-3-fluoro-N-(3-(5-methoxypyrimidin-2-yl)phenyl)bicyclo[1.1.1]pentane-1-carboxamide], for which the EC50 under setting [1] came to 0.068 µM. Still for that read-out and setting: to `CC(C)(O)c1cnc(-c2ccnc(N(CC34CCC(c5ccc(C(C)(F)F)cn5)(CC3)CC4)C(=O)OC(C)(C)C(F)(F)F)c2)nc1` [Example 608, 1,1,1-trifluoro-2-methylpropan-2-yl ((4-(5-(1,1-difluoroethyl)pyridin-2-yl)bicyclo[2.2.2]octan-1-yl)methyl)(4-(5-(2-hydroxypropan-2-yl)pyrimidin-2-yl)pyridin-2-yl) carbamate] belongs 0.301 µM. For `COc1cc(-c2cccc(N(CC34CCC(c5nnc(C)s5)(CC3)CC4)C(=O)C34CC(F)(C3)C4)c2)ccn1` [Example 232, 3-Fluoro-N-(3-(2-methoxypyridin-4-yl)phenyl)-N-((4-(5-methyl-1,3,4-thiadiazol-2-yl)bicyclo[2.2.2]octan-1-yl)methyl)bicyclo[1.1.1]pentane-1-carboxamide], the EC50 under setting [1] was 0.465 µM. Same read-out and setting: to `Cn1nc(C23CCC(CN(C(=O)C45CC(F)(C4)C5)c4cccc(-c5cnc6nc(C7CC7)sc6c5)c4)(CC2)CC3)cc1C1CC1` [Example 410, N-((4-(5-cyclopropyl-1-methyl-1H-pyrazol-3-yl)bicyclo[2.2.2]octan-1-yl)methyl)-N-(3-(2-cyclopropylthiazolo[4,5-b]pyridin-6-yl)phenyl)-3-fluorobicyclo[1.1.1]pentane-1-carboxamide] belongs 0.465 µM. The same measure, in the same setting: to `Cc1cnc(-c2cccc(N(CC34CCC(c5noc(C(C)(C)C)n5)(CC3)CC4)C(=O)C34CC(F)(C3)C4)c2)nc1` [Example 454, N-((4-(5-(tert-butyl)-1,2,4-oxadiazol-3-yl)bicyclo[2.2.2]octan-1-yl)methyl)-3-fluoro-N-(3-(5-methylpyrimidin-2-yl)phenyl)bicyclo[1.1.1]pentane-1-carboxamide] belongs 0.031 µM. Same read-out and setting: the figure for `CC(C)(C)NC(=O)N(CC12CCC(c3noc(C(C)(C)F)n3)(CC1)CC2)c1cc(-c2ccc(OC(F)F)cc2)cnn1` [Example 660] is 2.19 µM; for `COc1ncc(-c2cccc(N(CC34CCC(c5nc(C(C)(C)C)no5)(CC3)CC4)C(=O)C34CC(F)(C3)C4)c2)cn1` [Example 363, N-((4-(3-(tert-butyl)-1,2,4-oxadiazol-5-yl)bicyclo[2.2.2]octan-1-yl)methyl)-3-fluoro-N-(3-(2-methoxypyrimidin-5-yl)phenyl)bicyclo[1.1.1]pentane-1-carboxamide] it is 0.07 µM. For the molecule `Cc1nc2ccc(-c3cccc(N(CC45CCC(c6nc(C7CC7)no6)(CC4)OC5)C(=O)C4CC(F)(F)C4)c3)cc2s1` [Example 565, N-((1-(3-cyclopropyl-1,2,4-oxadiazol-5-yl)-2-oxabicyclo[2.2.2]octan-4-yl)methyl)-3,3-difluoro-N-(3-(2-methylbenzo[d]thiazol-6-yl)phenyl)cyclobutane-1-carboxamide], the EC50 was found to be 0.947 µM. As for `CC(C)S(=O)(=O)Nc1ccc(-c2cccc(N(CC34CCC(c5nc(C6CC6)no5)(CC3)CC4)C(=O)C34CC(F)(C3)C4)c2)cc1` [Example 268, N-((4-(3-cyclopropyl-1,2,4-oxadiazol-5-yl)bicyclo[2.2.2]octan-1-yl)methyl)-3-fluoro-N-(4′-((1-methylethyl)sulfonamido)-[1,1′-biphenyl]-3-yl)bicyclo[1.1.1]pentane-1-carboxamide], under setting [1], the EC50 was determined as 0.166 µM. `CC(C)(O)c1ccc(-c2cccc(N(CC34CCC(c5noc(C(C)(C)F)n5)(CC3)CC4)C(=O)NCC3(CO)CCOCC3)c2)cc1` [Example 647, 1-((4-(5-(2-fluoropropan-2-yl)-1,2,4-oxadiazol-3-yl)bicyclo[2.2.2]octan-1-yl)methyl)-3-((4-(hydroxymethyl)tetrahydro-2H-pyran-4-yl)methyl)-1-(4′-(2-hydroxypropan-2-yl)-[1,1′-biphenyl]-3-yl)urea] displayed an EC50 of 0.581 µM. Turning to `Cc1nc2ccc(-c3cccc(N(CC45CCC(c6nc(C7CC7)no6)(CC4)CC5)C(=O)C45CC(F)(C4)C5)c3)cc2o1` [Example 275, N-((4-(3-cyclopropyl-1,2,4-oxadiazol-5-yl)bicyclo[2.2.2]octan-1-yl)methyl)-3-fluoro-N-(3-(2-methylbenzo[d]oxazol-6-yl)phenyl)bicyclo[1.1.1]pentane-1-carboxamide], a half-maximal response under setting [1] (EC50) required 0.0587 µM. As to `CCOc1ccc(-c2cccc(N(CC34CCC(c5nc(C(C)C)no5)(CC3)CC4)C(=O)C34CC(F)(C3)C4)c2)cn1` [Example 381, N-(3-(6-ethoxypyridin-3-yl)phenyl)-3-fluoro-N-((4-(3-isopropyl-1,2,4-oxadiazol-5-yl)bicyclo[2.2.2]octan-1-yl)methyl)bicyclo[1.1.1]pentane-1-carboxamide], it took 0.04 µM to reach a half-maximal effect under setting [1] (EC50). The same measure, in the same setting: to `CCOc1ncc(-c2cncc(N(CC34CCC(c5nc(C(C)(C)C)no5)(CC3)CC4)C(=O)C34CC(F)(C3)C4)c2)cn1` [Example 472, N-((4-(3-(tert-butyl)-1,2,4-oxadiazol-5-yl)bicyclo[2.2.2]octan-1-yl)methyl)-N-(5-(2-ethoxypyrimidin-5-yl)pyridin-3-yl)-3-fluorobicyclo[1.1.1]pentane-1-carboxamide] belongs 0.758 µM.

With `CC(C)(O)c1ccc(-c2cccc(N(CC34CCC(c5noc(C(C)(C)F)n5)(CC3)CC4)C(=O)NC3CCS(=O)(=O)CC3)c2)cc1` [Example 644, 3-(1,1-dioxidotetrahydro-2H-thiopyran-4-yl)-1-((4-(5-(2-fluoropropan-2-yl)-1,2,4-oxadiazol-3-yl)bicyclo[2.2.2]octan-1-yl)methyl)-1-(4′-(2-hydroxypropan-2-yl)-[1,1′-biphenyl]-3-yl)urea], the EC50 was 0.743 µM. Consider `CCOc1ncc(-c2cccc(N(CC34CCC(c5noc(C6(C)CC6)n5)(CC3)CC4)C(=O)C34CC(F)(C3)C4)c2)cn1` [Example 396, N-(3-(2-ethoxypyrimidin-5-yl)phenyl)-3-fluoro-N-((4-(5-(1-methylcyclopropyl)-1,2,4-oxadiazol-3-yl)bicyclo[2.2.2]octan-1-yl)methyl)bicyclo[1.1.1]pentane-1-carboxamide], for which the EC50 under setting [1] is 0.046 µM.

Take `COc1ccc(C23CCC(CN(C(=O)C4CC(F)(F)C4)c4cccc(-c5ccc6nc(C)sc6c5)c4)(CC2)CO3)cc1` [Example 557, 3,3-Difluoro-N-((1-(4-methoxyphenyl)-2-oxabicyclo[2.2.2]octan-4-yl)methyl)-N-(3-(2-methylbenzo[d]thiazol-6-yl)phenyl)cyclobutane-1-carboxamide]: the EC50 under setting [1] was 1.58 µM. On the same count and under the same terms, the figure for `CC(C)Oc1ccc(-c2ccnc(N(CC34CCC(c5noc(C(C)(C)F)n5)(CC3)CC4)C(=O)OC(C)(C)C(F)(F)F)n2)cc1` [Example 636, 1,1,1-trifluoro-2-methylpropan-2-yl ((4-(5-(2-fluoropropan-2-yl)-1,2,4-oxadiazol-3-yl)bicyclo[2.2.2]octan-1-yl)methyl)(4-(4-isopropoxyphenyl)pyrimidin-2-yl)carbamate] is 0.068 µM. Regarding `O=C(C1CC(F)(F)C1)N(CC12CCC(c3nc(C4CC4)no3)(CC1)CC2)c1cccc(-c2nc3cc(F)ccc3o2)c1` [Example 560, N-((4-(3-cyclopropyl-1,2,4-oxadiazol-5-yl)bicyclo[2.2.2]octan-1-yl)methyl)-3,3-difluoro-N-(3-(5-fluorobenzo[d]oxazol-2-yl)phenyl)cyclobutane-1-carboxamide], a half-maximal effect (EC50) was put at 1.51 µM. With `CCOc1cnc(-c2cccc(N(CC34CCC(c5nc(C6CC6)no5)(CC3)CC4)C(=O)C34CC(F)(C3)C4)c2)nc1` [Example 333, N-((4-(3-cyclopropyl-1,2,4-oxadiazol-5-yl)bicyclo[2.2.2]octan-1-yl)methyl)-N-(3-(5-ethoxypyrimidin-2-yl)phenyl)-3-fluorobicyclo[1.1.1]pentane-1-carboxamide], the EC50 under setting [1] was found to be 0.302 µM. Take `COCc1ccc(-c2cccc(N(CC34CCC(c5nc(C6CC6)no5)(CC3)CC4)C(=O)C34CC(F)(C3)C4)c2)cc1` [Example 273, N-((4-(3-cyclopropyl-1,2,4-oxadiazol-5-yl)bicyclo[2.2.2]octan-1-yl)methyl)-3-fluoro-N-(4′-(methoxymethyl)-[1,1′-biphenyl]-3-yl)bicyclo[1.1.1]pentane-1-carboxamide]: a half-maximal response under setting [1] (EC50) required 0.052 µM. Take `CC(C)(C)c1nc(C23CCC(CN(C(=O)C45CC(F)(C4)C5)c4cc(-c5ccc6[nH]c(=O)oc6c5)ccn4)(CC2)CC3)no1` [Example 540, N-((4-(5-(tert-butyl)-1,2,4-oxadiazol-3-yl)bicyclo[2.2.2]octan-1-yl)methyl)-3-fluoro-N-(4-(2-oxo-2,3-dihydrobenzo[d]oxazol-6-yl)pyridin-2-yl)bicyclo[1.1.1]pentane-1-carboxamide]: it took 0.071 µM to reach a half-maximal effect (EC50).

On to `CC(C)c1noc(C23CCC(CN(C(=O)C45CC(F)(C4)C5)c4cccc(-c5ccc(NS(=O)(=O)C(F)(F)F)cc5)c4)(CC2)CC3)n1` [Example 390, 3-fluoro-N-((4-(3-isopropyl-1,2,4-oxadiazol-5-yl)bicyclo[2.2.2]octan-1-yl)methyl)-N-(4′-((trifluoromethyl)sulfonamido)-[1,1′-biphenyl]-3-yl)bicyclo[1.1.1]pentane-1-carboxamide], for which a half-maximal response under setting [1] (EC50) required 0.096 µM. On the same count and under the same terms, the figure for `COc1cc(-c2cccc(N(CC34CCC(c5cccc(C)n5)(CC3)CC4)C(=O)C34CC(F)(C3)C4)c2)ccn1` [Example 239, 3-Fluoro-N-(3-(2-methoxypyridin-4-yl)phenyl)-N-((4-(6-methylpyridin-2-yl)bicyclo[2.2.2]octan-1-yl)methyl)bicyclo[1.1.1]pentane-1-carboxamide] is 1.32 µM.

As usually defined, the EC50 is the midpoint of the concentration-response curve. A higher EC50 goes with weaker potency.
